Mutagenic call data for four molecules are collected here from PubChem BioAssay AID1259407 (Chemical Carcinogenesis Research Information System (CCRIS), 2018).

For this series, the system named is CCRIS mutagenicity, Ames/micronucleus/aberration tests. The experiment in a line: CCRIS mutagenicity studies.

The source made the active and inactive calls. No rule for the calls is given here.

As to `O=c1c(O)c(-c2ccc(O)cc2)oc2cc(O)cc(O)c12`, the mutagenic call (Test System: AMES SALMONELLA TYPHIMURIUM, Strain/Indicator: TA97A, Metabolic Activation: NONE, Method: STANDARD PLATE) was “inactive; negative”; the mutagenic call (Test System: AMES SALMONELLA TYPHIMURIUM, Strain/Indicator: TA97A, Metabolic Activation: RAT, LIVER, S-9, AROCLOR 1254, Method: STANDARD PLATE) was “active; positive”; the mutagenic call (Test System: AMES SALMONELLA TYPHIMURIUM, Strain/Indicator: TA98, Metabolic Activation: HAMSTER, LIVER, S-9, AROCLOR 1254, Method: STANDARD PLATE) is “active; positive”; the mutagenic call (Test System: AMES SALMONELLA TYPHIMURIUM, Strain/Indicator: TA98, Metabolic Activation: NONE, Method: STANDARD PLATE) was “inactive; negative”; the mutagenic call (Test System: AMES SALMONELLA TYPHIMURIUM, Strain/Indicator: TA98, Metabolic Activation: RAT, LIVER, S-9, 5,6-BENZOFLAVONE AND/OR SODIUM PHENOBARBITAL, Method: PREINCUBATION) was “active; positive”; the mutagenic call (Test System: AMES SALMONELLA TYPHIMURIUM, Strain/Indicator: TA98, Metabolic Activation: RAT, LIVER, S-9, AROCLOR 1254, Method: STANDARD PLATE) is “active; positive”. Moreover, the mutagenic call (Test System: AMES SALMONELLA TYPHIMURIUM, Strain/Indicator: TA98, Metabolic Activation: RAT, LIVER, S-105, 5,6-BENZOFLAVONE AND/OR SODIUM PHENOBARBITAL, Method: PREINCUBATION) is “inactive; negative”; the mutagenic call (Test System: AMES SALMONELLA TYPHIMURIUM, Strain/Indicator: TA100, Metabolic Activation: NONE, Method: STANDARD PLATE) is “inactive; negative”; the mutagenic call (Test System: AMES SALMONELLA TYPHIMURIUM, Strain/Indicator: TA102, Metabolic Activation: NONE, Method: STANDARD PLATE) was “inactive; negative”; the mutagenic call (Test System: AMES SALMONELLA TYPHIMURIUM, Strain/Indicator: TA102, Metabolic Activation: RAT, LIVER, S-9, AROCLOR 1254, Method: STANDARD PLATE) was “active; positive”; the mutagenic call (Test System: AMES SALMONELLA TYPHIMURIUM, Strain/Indicator: TA1535, Metabolic Activation: HAMSTER, LIVER, S-9, AROCLOR 1254, Method: STANDARD PLATE) is “inactive; negative”; the mutagenic call (Test System: AMES SALMONELLA TYPHIMURIUM, Strain/Indicator: TA1535, Metabolic Activation: NONE, Method: STANDARD PLATE) is “inactive; negative”. Besides, the mutagenic call was “inactive; negative” (Test System: AMES SALMONELLA TYPHIMURIUM, Strain/Indicator: TA1535, Metabolic Activation: RAT, LIVER, S-9, AROCLOR 1254, Method: STANDARD PLATE); “active; positive” (Test System: AMES SALMONELLA TYPHIMURIUM, Strain/Indicator: TA1537, Metabolic Activation: HAMSTER, LIVER, S-9, AROCLOR 1254, Method: STANDARD PLATE); “inactive; negative” (Test System: AMES SALMONELLA TYPHIMURIUM, Strain/Indicator: TA1537, Metabolic Activation: NONE, Method: STANDARD PLATE); “active; positive” (Test System: AMES SALMONELLA TYPHIMURIUM, Strain/Indicator: TA1537, Metabolic Activation: RAT, LIVER, S-9, AROCLOR 1254, Method: STANDARD PLATE); “active; positive. reevaluation of results: positive” (Test System: MOUSE LYMPHOMA, Strain/Indicator: L5178Y (TK+/TK-), Metabolic Activation: NONE, Method: SUSPENSION/PLATE); “active; positive. reevaluation of results: equivocal” (Test System: MOUSE LYMPHOMA, Strain/Indicator: L5178Y (TK+/TK-), Metabolic Activation: RAT, LIVER, S-9, AROCLOR 1254, Method: SUSPENSION/PLATE).

In the case of `Cc1ccc(C2CO2)cc1C` (stereo unspecified), the mutagenic call (Test System: E. COLI, Strain/Indicator: WP2, Metabolic Activation: NONE, Method: STANDARD PLATE) is “active; positive” and the mutagenic call (Test System: E. COLI, Strain/Indicator: WP2 UVRA, Metabolic Activation: NONE, Method: STANDARD PLATE) was “active; positive”.

For `Cc1c2ccccc2c(C)c2c3c(ccc12)C(=O)C(=O)C=C3`, the mutagenic call is, setting by setting: (Test System: AMES SALMONELLA TYPHIMURIUM, Strain/Indicator: TA97A, Metabolic Activation: NONE, Method: PREINCUBATION) “inactive; negative”; (Test System: AMES SALMONELLA TYPHIMURIUM, Strain/Indicator: TA98, Metabolic Activation: NONE, Method: PREINCUBATION) “inactive; negative”; (Test System: AMES SALMONELLA TYPHIMURIUM, Strain/Indicator: TA100, Metabolic Activation: NONE, Method: PREINCUBATION) “inactive; negative”; (Test System: AMES SALMONELLA TYPHIMURIUM, Strain/Indicator: TA102, Metabolic Activation: NONE, Method: PREINCUBATION) “inactive; negative”; (Test System: AMES SALMONELLA TYPHIMURIUM, Strain/Indicator: TA104, Metabolic Activation: NONE, Method: PREINCUBATION) “inactive; negative”.

Consider `O=C1C=C2c3cc4ccccc4cc3-c3cccc(c32)C1=O`, for which the mutagenic call (Test System: AMES SALMONELLA TYPHIMURIUM, Strain/Indicator: TA100, Metabolic Activation: RAT, LIVER, S-9, AROCLOR 1254, Method: STANDARD PLATE) was “active; positive”.
